ChEMBL document CHEMBL6153077, “Design, synthesis, and anti-liver fibrosis activity of novel non-steroidal vitamin D receptor agonists based on open-ring steroid scaffold” (Eur J Med Chem, 2025)
Values belong to the compound of their own block, whether it stands above or below them. Calls of active or inactive are those of the source. The calls are words filed in the database; no cut-off is given here.

Assays:
[1] = molecular target: T1, Vitamin D3 receptor (Homo sapiens) (UniProt P11473); experiment: Binding affinity to full-length VDR (unknown origin) at 1 uM by fluorescence polarization assay relative to control
T1 sequence (whole entry): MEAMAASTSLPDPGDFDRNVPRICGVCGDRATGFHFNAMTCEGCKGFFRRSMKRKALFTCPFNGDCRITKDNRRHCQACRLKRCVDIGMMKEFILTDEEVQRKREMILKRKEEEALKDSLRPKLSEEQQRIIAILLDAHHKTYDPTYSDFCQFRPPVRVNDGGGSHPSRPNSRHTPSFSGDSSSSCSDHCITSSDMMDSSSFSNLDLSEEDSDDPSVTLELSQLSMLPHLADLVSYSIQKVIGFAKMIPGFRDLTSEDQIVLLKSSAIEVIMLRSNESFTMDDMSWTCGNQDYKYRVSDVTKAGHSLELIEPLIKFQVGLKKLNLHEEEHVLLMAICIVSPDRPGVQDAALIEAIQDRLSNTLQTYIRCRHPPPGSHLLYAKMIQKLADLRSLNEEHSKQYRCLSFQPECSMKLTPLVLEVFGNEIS

[2] = molecular target: T1, Vitamin D3 receptor (Homo sapiens); experiment: Agonist activity at VDR in human LX2 cells assessed as increase in CYP24A1 level at 0.5 uM by qRT-PCR analysis; type: cell-based; settings: filed as agonist
[3] = system: LX-2; experiment: Inhibition of HSC activation in TGF-beta1-treated human LX2 cells assessed as decrease in ACTA2 mRNA level at 0.5 uM incubated for 24 hrs by qPCR analysis; type: functional, cell-based
[4] = system: LX-2; experiment: Inhibition of HSC activation in TGF-beta1-treated human LX2 cells assessed as decrease in COL1A1 mRNA level at 0.5 uM incubated for 24 hrs by qPCR analysis; type: functional, cell-based
[5] = system: LX-2; experiment: Inhibition of HSC activation in TGF-beta1-treated human LX2 cells assessed as decrease in collagen-I level at 0.5 uM incubated for 24 hrs by Western blot analysis; type: functional, cell-based
[6] = system: LX-2; experiment: Inhibition of HSC activation in TGF-beta1-treated human LX2 cells assessed as decrease in alpha-SMA level at 0.5 uM incubated for 24 hrs by Western blot analysis; type: functional, cell-based
[7] = molecular target: T1, Vitamin D3 receptor (Homo sapiens); experiment: Agonist activity at human VDR in HEK293 cells co-expressing 3-Luc/RXRalpha assessed as transcriptional activity at 0.5 uM by dual luciferase reporter assay; type: cell-based; settings: filed as agonist

- Activity ([1]; filed as agonist): 55%
SMILES: CC(C)(O)CCOc1ccc(/C=C/C2=C[C@@H](O)[C@@H](O)[C@H](O)C2)c2c1CCCC2

- Activity ([1]; filed as agonist): 68%
SMILES: CCC(O)(CC)CCCOc1cccc2c1CCCC2OC(=O)C1=C[C@@H](O)[C@@H](O)[C@H](O)C1 (stereo partly specified)

- Activity ([1]; filed as agonist): 51%
SMILES: OCc1ccc(/C=C/c2ccc(OCCCC(F)(F)F)cc2)cc1CO

- Activity ([1]; filed as agonist): 45%
SMILES: CC(C)(O)CCOc1cccc2c1CCCC2OC(=O)C1=C[C@@H](O)[C@@H](O)[C@H](O)C1 (stereo partly specified)

- Activity [1]: 77%
SMILES: OC(COc1ccc(/C=C/C2=C[C@@H](O)[C@@H](O)[C@H](O)C2)c2c1CCCC2)c1ccccc1 (stereo partly specified)
- inhibition [3]: inactive
- inhibition [4]: inactive
- inhibition [5]: inactive
- inhibition [6]: inactive

- Activity ([1]; filed as agonist): 72%
SMILES: CC(C)(O)COc1ccc(/C=C/C2=C[C@@H](O)[C@@H](O)[C@H](O)C2)c2c1CCCC2

- Activity ([1]; filed as agonist): 69%
SMILES: CC(C)(O)CCCOc1cccc2c1CCCC2OC(=O)C1=C[C@@H](O)[C@@H](O)[C@H](O)C1 (stereo partly specified)

- Activity [1]: 34%
SMILES: CCCCC(O)(CCCC)CCCOc1cccc2c1CCCC2OC(=O)C1=C[C@@H](O)[C@@H](O)[C@H](O)C1 (stereo partly specified)

- Activity ([1]; filed as agonist): 65%
SMILES: CC(C)(O)CCCCOc1cccc2c1CCCC2OC(=O)C1=C[C@@H](O)[C@@H](O)[C@H](O)C1 (stereo partly specified)

- Activity ([1]; filed as agonist): 68%
SMILES: CC(C)(C)C(=O)COc1ccc(/C=C/C2=C[C@@H](O)[C@@H](O)[C@H](O)C2)c2c1CCCC2

- Activity ([1]; filed as agonist): 85%
SMILES: CC(OC(=O)C1=C[C@@H](O)[C@@H](O)[C@H](O)C1)c1cccc(OCCCC(C)(C)O)c1 (stereo partly specified)

Further lines, the compound ahead of its results:

SMILES: CCC(O)(CC)CCCn1ccc2c(/C=C/C3=C[C@@H](O)[C@@H](O)[C@H](O)C3)cccc21
- Activity ([1]; filed as agonist): 64%
- Activity [2]: Active

SMILES: CC(C)(O)CCCn1ccc2c(/C=C/C3=C[C@@H](O)[C@@H](O)[C@H](O)C3)cccc21
- Activity ([1]; filed as agonist): 71%

SMILES: O=C(COc1ccc(/C=C/C2=C[C@@H](O)[C@@H](O)[C@H](O)C2)c2c1CCCC2)N1CCOCC1
- Activity ([1]; filed as agonist): 45%

SMILES: CCN(CC)CCCOc1cccc2c1CCCC2OC(=O)C1=C[C@@H](O)[C@@H](O)[C@H](O)C1 (stereo partly specified)
- Activity ([1]; filed as agonist): 64%

SMILES: CCCC(O)(CCC)CCCOc1cccc2c1CCCC2OC(=O)C1=C[C@@H](O)[C@@H](O)[C@H](O)C1 (stereo partly specified)
- inhibition [3]: Active
- inhibition [4]: Active
- Activity ([1]; filed as agonist): 77%
- Activity [7]: Active
- Activity [2]: Active

SMILES: CCC(O)(CC)COc1ccc(/C=C/C2=C[C@@H](O)[C@@H](O)[C@H](O)C2)c2c1CCCC2
- Activity ([1]; filed as agonist): 61%

SMILES: O=C(COc1ccc(/C=C/C2=C[C@@H](O)[C@@H](O)[C@H](O)C2)c2c1CCCC2)c1ccccc1
- inhibition [3]: Active
- inhibition [4]: Active
- Activity ([1]; filed as agonist): 72%
- Activity [2]: Active

SMILES: CCCCC(OC(=O)C1=C[C@@H](O)[C@@H](O)[C@H](O)C1)c1cccc(OCCCC(C)(C)O)c1 (stereo partly specified)
- Activity ([1]; filed as agonist): 50%

SMILES: O=C(OC1CCCc2c(OCCCN3CCOCC3)cccc21)C1=C[C@@H](O)[C@@H](O)[C@H](O)C1 (stereo partly specified)
- inhibition [3]: inactive
- inhibition [4]: inactive
- inhibition [5]: inactive
- Activity [1]: 50%
- inhibition [6]: inactive
